Reference: patent US5456923A, “Method of manufacturing solid dispersion” (priority 1991, dated 1995)
In brackets after ≈: the same amount, converted by molar mass. Counter-ions that a name gives are not always drawn.

Assay: physchem
Details: jp test solution 2
Description: Test method: Saturation dissolution method
Test conditions: Constanttemperature bath (25° C.)
Ultracentrifugation: 40000 rpm × 1 hr; the supernatant analyzed by

solubility at 24 h [µg/mL] | Compound
8.5 | COC(=O)C1=C(C)NC(C)=C(C(=O)OCCN(C)Cc2ccccc2)C1c1cccc([N+](=O)[O-])c1 (centres unmarked) [nicardipine hydrochloride]
36.5 (≈ 89.4 µM) | COC(=O)C1=C(C)NC(C)=C(P2(=O)OCCCO2)C1c1ccccc1[N+](=O)[O-] (centres unmarked) [Compound A, methyl 2,6-dimethyl-4-(2-nitrophenyl)-5-(2-oxo-1,3,2-dioxaphosphorinan-2-yl)-1,4-dihydropyridine-3-carboxylate]
